The source of these data is PMC10694602, “Binding of perilipin 3 to membranes containing diacylglycerol is mediated by conserved residues within its PAT domain” (The Journal of Biological Chemistry, 2023).

Where a name gives a salt, the structure may show the parent alone. Read-outs that look alike come from different tables or passages of the source.

For assay [1], the target named is T1, 4-helix bundle of PLIN3 (Homo sapiens, UniProt O60664).
T1 sequence (O60664 245-434 limits assumed): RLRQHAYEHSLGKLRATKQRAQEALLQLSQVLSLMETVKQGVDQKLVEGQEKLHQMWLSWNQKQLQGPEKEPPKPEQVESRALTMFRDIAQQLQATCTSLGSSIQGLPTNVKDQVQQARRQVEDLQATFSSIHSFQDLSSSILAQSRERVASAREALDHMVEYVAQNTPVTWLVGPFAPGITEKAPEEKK
The assay is described as follows: MST binding to the 4-helix bundle of PLIN3. From the text:
(§1) To gain further insight into the binding of PLIN3 to DAG-containing membranes, we examined the contribution of each individual domain of PLIN3 towards lipid binding, that is, the N-terminal PAT domain, the central 11-mer repeat region, and the C-terminally located 4-helix bundle (Fig. 2A). Therefore, we expressed and purified proteins harboring individual domains of PLIN3 and first examined their binding of short-chain lipids.
(§2) Binding of purified PLIN3 protein and PLIN3 domains to liposomes, ALDs, or short chain lipids was determined by MST using a Monolith NT.115 system (Nanotemper Technologies). Proteins were labeled with a RED-tris-NTA His tag protein-labeling reagent following the manufacturer’s instructions (Nanotemper Technologies). Labeled proteins were added to a serial dilution of unlabeled lipids, liposomes, or ALDs, and the mixtures were loaded into MST standard capillaries to assess binding affinities. The dissociation constant was obtained by plotting fluorescence intensities of the protein–lipid complex against the concentrations of the unlabeled lipids, liposomes, or ALDs. Experiments were performed in triplicates and data were fitted using the KD Model of the MO.Affinity Analysis software (https://nanotempertech.com/, Nanotemper Technologies).

The target of assay [2] is T2, PLIN3 (Homo sapiens, UniProt O60664).
T2 construct: Plasmids containing human full-length PLIN3 or fragments thereof were obtained by PCR amplification; made in house; host or cells: Escherichia coli BL21 (DE3) or NiCo21 (DE3)
T2 sequence (O60664 1-434): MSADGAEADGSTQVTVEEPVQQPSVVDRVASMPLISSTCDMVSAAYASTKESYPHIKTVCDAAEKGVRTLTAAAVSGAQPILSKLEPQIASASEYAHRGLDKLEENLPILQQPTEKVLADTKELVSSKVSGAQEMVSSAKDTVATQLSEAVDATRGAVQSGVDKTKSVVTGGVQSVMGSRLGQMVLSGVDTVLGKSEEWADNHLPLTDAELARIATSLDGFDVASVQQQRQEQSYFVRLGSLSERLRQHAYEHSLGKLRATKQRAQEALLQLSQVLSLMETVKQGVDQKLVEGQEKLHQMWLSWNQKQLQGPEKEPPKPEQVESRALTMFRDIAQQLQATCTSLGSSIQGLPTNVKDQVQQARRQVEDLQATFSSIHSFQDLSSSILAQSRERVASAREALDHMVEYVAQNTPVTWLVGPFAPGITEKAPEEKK
The assay is described as follows: Microscale thermophoresis (MST) binding of lipids, liposomes or ALDs to full-length WT PLIN3. The following applies: for fold increase of PLIN3 binding versus unspiked DOPC/DOPE liposomes: DOPC/DOPE (80/20 mol%) liposomes, DAG 5 mol%, DOPA 10 mol%.
Source text: To corroborate these findings, we analyzed binding of PLIN3 to liposomes using microscale thermophoresis (MST), an immobilization-free technology for measuring biomolecular interactions based on the diffusion of a fluorescently labeled protein along a microscopic temperature gradient. In this assay, the free protein diffuses faster than the one which has bound to a ligand. Ligands can range from small ions to low molecular weight compounds, liposomes, or even viruses ([24], [25], [26], [27], [28]). Variations in fluorescence intensity are then plotted against the ligand concentrations to determine a binding affinity. […] To determine the optimal DAG concentrations for PLIN3 binding, we varied the DAG concentrations in the ER-liposomes between 0 to 20 mol%.
as §2
Background: Microscale thermophoresis detects binding through changes in fluorescence in a small temperature gradient.

Assay [3] concerns the target T3, PAT domain of PLIN3 (Homo sapiens, UniProt O60664).
T3 sequence (O60664 1-107 limits assumed): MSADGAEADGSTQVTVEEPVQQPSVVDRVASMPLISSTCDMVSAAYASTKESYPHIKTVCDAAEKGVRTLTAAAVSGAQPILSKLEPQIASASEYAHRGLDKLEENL
Kind of assay: MST binding to the PAT domain of PLIN3. The following applies: short chain lipids as free ligands; n.d. = not detected; Fig. 2B.
Source text: as §1, §2

The target of assay [4] is T4, 11-mer repeat region of PLIN3 (Homo sapiens, UniProt O60664).
T4 sequence (O60664 115-179 limits assumed): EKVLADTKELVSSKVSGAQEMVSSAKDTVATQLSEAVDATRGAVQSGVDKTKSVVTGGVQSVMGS
Kind of assay: MST binding to the 11-mer repeat region of PLIN3. The following applies: short chain lipids as free ligands; n.d. = not detected; Fig. 2B.
Source text: as §1, §2

Assay [5] concerns the target T5, His-tagged human PLIN3 (Homo sapiens, UniProt O60664).
T5 construct: Plasmids containing human full-length PLIN3 or fragments thereof were obtained by PCR amplification; made in house; host or cells: Escherichia coli BL21 (DE3) or NiCo21 (DE3)
T5 sequence (O60664 1-434): T2 sequence (O60664 1-434)
The assay is described as follows: Liposome flotation assay on a sucrose gradient, PLIN3 detected by Western blotting. In kind it is binding. The note with it: ER-liposomes containing 16:0 DAG at 5 mol%; top layer of sucrose gradient. How it is done:
To examine the interaction between soluble PLIN3 and membranes containing DAG, we first performed liposome-binding assays. Therefore, purified His-tagged human PLIN3 was incubated with liposomes prepared from a phospholipid mixture that mimics the composition of the ER membrane (DOPC/DOPE/DOPS/DOPA/SoyPI, 53/23/8/5/11 mol%; hereafter termed ER-liposomes) lacking or containing low concentrations of DAG (16:0 DAG; 5 mol%). Liposomes were then floated on a sucrose gradient, and PLIN3 binding was monitored by Western blotting.
Purified PLIN3 was incubated with liposomes for 1 h at RT and then gently mixed with an equal volume of 60% (w/v) sucrose solution in liposome buffer to obtain a final sucrose concentration of 30%. This mixture was overlaid with two volumes of 20% sucrose solution, two volumes of 10% sucrose solution, and one volume of liposome buffer. The samples were centrifuged at 177,000g for 1 h at 20 °C. Four fractions were collected from the top of the gradient and the distribution of PLIN3 was analyzed by Western blotting. Signal intensities were quantified using ImageJ (https://imagej.net/ij/) software.

The mark [6] stands for this setting: ER-liposomes supplemented with the named DAG at 5 mol%, KD against liposome concentration, Fig. 1C, read-out: KD.

The Kd is the free concentration of one partner at which half of the binding sites on the other are occupied at equilibrium, for simple one-to-one binding. On to `CCCCCCC(=O)OC[C@H](COP(=O)([O-])OCC[N+](C)(C)C)OC(=O)CCCCCC` [7:0 PC, 1,2-diheptanoyl-sn-glycero-3-phosphocholine], for which the dissociation constant Kd in assay [1] is 88.5 ± 28.8 µM; in assay [2], 214 ± 71 µM.

In turn, `CCCCCCCC(=O)OC[C@H](COP(=O)(O)O)OC(=O)CCCCCCC` [8:0 PA, 1,2-dioctanoyl-sn-glycero-3-phosphate sodium salt] displayed a Kd in assay [3] of 14.1 µM.

With `CCCCCCCC(=O)OC[C@H](COP(=O)(O)OC[C@H](N)C(=O)O)OC(=O)CCCCCCC` [8:0 PS, 1,2-dioctanoyl-sn-glycero-3-phospho-L-serine sodium salt], the results for the Kd in assay [4] and in assay [3] were 471 ± 53.8 µM and 106 ± 30.5 µM, respectively.

In the case of `CCCCCCCC(=O)OCC(COC(=O)CCCCCCC)OC(=O)CCCCCCC` [8:0 TAG, 1,2,3-trioctanoylglycerol], the Kd in assay [3] was 17.3 µM; in assay [2] (short chain lipid as free ligand, Fig. 1I, Fig. 4C, read-out: KD) it was 0.27 µM.

With `CCCCCCCCCCCCCCCC(=O)OC[C@H](CO)OC(=O)CCCCCCCCCCCCCCC` [16:0 DAG, 1,2-dipalmitoyl-sn-glycerol], the “fraction of PLIN3 recovered from liposomes” value in assay [5] turned out to be 13.9%. For the same molecule, the “fold increase of PLIN3 binding versus unspiked DOPC/DOPE liposomes” value in assay [2] was 36 fold. Further, in assay [2] (ER-liposomes containing 16:0 DAG at 5 mol%), the “fold lower dissociation constant than ER-liposomes lacking DAG” value came to 29 fold. Moreover, the equilibrium dissociation constant (Kd) in assay [2] (setting [6]) is 20.6 µM; in assay [2] (PC/PE liposomes (DOPC/DOPE; 80/20 mol%) spiked with 16:0 DAG at 5 mol%, Fig. 1H, read-out: KD), 15 µM.

For the molecule `CCCCCCCC/C=C\CCCCCCCC(=O)OC[C@H](CO)OC(=O)CCCCCCC/C=C\CCCCCCCC` [18:1 DAG, 1,2-dioleoyl-sn-glycerol], the Kd in assay [2] (setting [6]) worked out at 60.1 µM.

`CCCCCCCC/C=C\CCCCCCCC(=O)OC[C@H](COP(=O)(O)O)OC(=O)CCCCCCC/C=C\CCCCCCCC` [18:1 PA, 1,2-dioleoyl-sn-glycero-3-phosphate]: the “fold increase of PLIN3 binding versus unspiked DOPC/DOPE liposomes” value in assay [2] worked out at 9 fold. In addition, the Kd in assay [2] (PC/PE liposomes (DOPC/DOPE; 80/20 mol%) spiked with the named lipid at 10 mol%, n.d. = not detected, Fig. 1H, read-out: KD) was 58.1 µM.

In the case of `CC(C)CCC[C@@H](C)[C@H]1CC[C@H]2[C@@H]3CC=C4C[C@@H](O)CC[C@]4(C)[C@H]3CC[C@]12C` [cholesterol], in assay [2] (ER-liposomes supplemented with 20 mol% cholesterol, Fig. 1E, read-out: KD), the Kd came to 64.9 µM.
